Source: US20250052678A1, “EVALUATION METHOD, EVALUATION DEVICE, AND INFORMATION PROCESSING PROGRAM” (HAMAMATSU PHOTONICS K.K., priority 2021, published 2025)

Tests used:
[1] = tested on: Human liver cancer-derived cells (HepG2) cell aggregates; experiment: Lipid droplet formation in HepG2 cell aggregates, refractive index distribution measuring method A2 (Example 1); assay type: cell-based; conditions: sodium oleate 0.5 mM, one day
Experimental: Human liver cancer-derived cells (HepG2) were cultured for one day in a cell culture vessel (“EZSPHERE” manufactured by AGC-Techno Glass Co., Ltd.) having low-cell-adhesive compartments to prepare cell aggregates. The low-cell-adhesive compartments are provided with a low-protein-adhesive coat. Cell aggregates were formed in a DMEM medium containing 10% fetal bovine serum in the low-cell-adhesive compartments. A portion of the cell aggregates was cultured for one day in a DMEM medium containing 1% fatty acid-free bovine serum albumin instead of fetal bovine serum, with addition of sodium oleate to a final concentration of 0.5 mM, to induce formation of lipid droplets. The remaining portion of the cell aggregates was cultured for an additional day in a DMEM medium containing 10% fetal bovine serum without the addition of oleic acid (control). […] In the obtained refractive index distribution data, a region where the refractive index (n) was greater than 1.337 was determined as a cell aggregate region. […] A region having a refractive index (n) of greater than 1.375 was determined as a lipid droplet region. The area of the lipid droplet region present in the cell aggregate region of interest was measured.

[2] = tested on: HepG2 cell aggregate (fatty liver model); experiment: Lipid droplet volume ratio by distance from center of gravity in HepG2 cell aggregates, measuring method C (Example 2); assay type: cell-based, Human
Experimental: Preparation of cell aggregates, homogenization, and induction of lipid droplet formation were carried out in the same manner as in Example 1. The refractive index distribution data was evaluated in accordance with Embodiment T3 (FIG. 42). The refractive index distribution data was obtained by the refractive index distribution measuring method C. In the obtained refractive index distribution data, the center of gravity C was calculated, and the refractive index distribution data was evaluated based on distances from the center of gravity C. It was divided into concentric circles at intervals of 2.5 μm from the center of gravity C, and the ratio of the volume of lipid droplets present therein was calculated. The lipid droplet region was set as a region having a refractive index n>1.37, cell region of spheroid as a region having a refractive index n>1.34 and a medium region as a region having a refractive index n≤1.34 and the calculation was carried out. The results of the cell aggregate of the oleic acid-treated HepG2 (fatty liver model) and the control (without oleic acid) were compared.

CCCCCCCC/C=C\CCCCCCCC(=O)O [oleic acid]
formation of lipid droplets (structures with high refractive index) ([1]; FIG. 41B): induced the formation of lipid droplets
area of the lipid droplet region per cell aggregate relative to control (without oleic acid) ([1]; lipid droplet region n>1.375, aggregates of maximum diameter 50 to 100 μm): 2.75 times
ratio of the volume of lipid droplets versus control (without oleic acid) ([2]; concentric circles at 2.5 μm intervals from center of gravity C, lipid droplet region n>1.37): greater ratio of the volume of lipid droplets
distance from the center of gravity where many lipid droplets exist ([2]; oleic acid-treated and control alike): about 20 μm
